Test results from patent publication US6838479B2, “Amidine inhibitors of serine proteases” (Genentech, Inc., priority 2000, dated 2005).
Several values for one entry are separate records, joined by “and”; a condition that tells them apart may be missing. Identical values can stand only once.

Tests used:
Assay type in all cases: biochemical
[1] = molecular target: tissue factor/factor VIIa (Homo sapiens, UniProt P08709); assay: Tissue Factor/Factor VIIa antagonist assay (chromogenic, Ki); conditions: 10 nM VIIa, 30 nM TF, Chromozym-tPA 1.33 mM; read-out: binding affinity to serine proteases: VIIa
Method: Tissue Factor/Factor VIIa Antagonist Assay
This procedure is used to determine the constant of inhibition (Ki) for a sample compound of the invention.
Procedure • 1. Prepare a solution of 2 μg/mL (90 nM) tissue factor and 1.5 μg/mL (30 nM) factor VIIa in assay buffer with CaCl2. • 2. Incubate for 15 minutes at room temperature. • 3. Add 50 μL sample to each well. • 4. Add 50 μL tissue factor/factor VIIa solution to each well. • 5. Incubate for 15 minutes at room temperature with gentle agitation. • 6. Add 50 μL substrate to each well. • 7. Agitate plate for 20-25 sec. • 8. Monitor absorbance at 405 nm every 10 see for a total of 5 minutes at room temperature. • 9. Calculate Vmax over 10 points.

human Factor Xa = molecular target: T1, human Factor Xa (Homo sapiens, UniProt P00742); assay: Factor Xa assay (chromogenic, Ki); conditions: 3.3 nM Xa, S-2222 0.5 mM; read-out: binding affinity to serine proteases: Xa
T1 construct: This complex converts factor X to Xa
Method: (§1) Factor Xa, Thrombin, and Plasma Kallikrein Assays
(§2) These procedures are used to determine the constant of inhibition (Ki) for a sample compound of the invention.
(§3) Procedure • 1. Add 50 μL sample to each well. • 2. Add 50 μL appropriately diluted coagulation factor to each well. • 3. Incubate for 5 minutes at room temperature with gentle agitation. • 4. Add 50 μL appropriately diluted substrate to each well. • 5. Agitate plate for 20-25 sec. • 6. Monitor absorbance at 405 nm every 10 sec for a total of 5 minutes at room temperature. • 7. Calculate Vmax over 10 points.

human Thrombin = molecular target: T2, human Thrombin (Homo sapiens, UniProt P00734); assay: Thrombin assay (chromogenic, Ki); conditions: 8.2 nM thrombin, S-2266 0.3 mM; read-out: binding affinity to serine proteases: thrombin
T2 construct: rapidly converts prothrombin to thrombin
Method: as §1, §2, §3

trypsin = molecular target: T3, trypsin (Bos taurus, UniProt P00760); assay: Trypsin binding affinity; conditions: read-out: binding affinity to serine proteases: trypsin
T3 sequence (P00760 24-246): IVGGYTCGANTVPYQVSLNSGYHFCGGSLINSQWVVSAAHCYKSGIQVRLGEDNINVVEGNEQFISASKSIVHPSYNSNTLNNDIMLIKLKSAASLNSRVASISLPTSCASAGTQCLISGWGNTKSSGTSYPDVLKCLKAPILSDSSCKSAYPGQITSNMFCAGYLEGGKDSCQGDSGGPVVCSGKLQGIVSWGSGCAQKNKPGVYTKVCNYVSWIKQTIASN

plasmin = plasmin (Homo sapiens, UniProt P00747); assay: Plasmin binding affinity; conditions: read-out: binding affinity to serine proteases: plasmin
human Plasma Kallikrein = human Plasma Kallikrein (Homo sapiens, UniProt P03952); assay: Plasma Kallikrein assay (chromogenic, Ki); conditions: 1.5 nM plasma kallikrein, S-2302 0.3 mM; read-out: binding affinity to serine proteases: kallikrein
Method: as §1, §2, §3

Chain of tissue factor/factor VIIa (P08709 213-466 limits assumed): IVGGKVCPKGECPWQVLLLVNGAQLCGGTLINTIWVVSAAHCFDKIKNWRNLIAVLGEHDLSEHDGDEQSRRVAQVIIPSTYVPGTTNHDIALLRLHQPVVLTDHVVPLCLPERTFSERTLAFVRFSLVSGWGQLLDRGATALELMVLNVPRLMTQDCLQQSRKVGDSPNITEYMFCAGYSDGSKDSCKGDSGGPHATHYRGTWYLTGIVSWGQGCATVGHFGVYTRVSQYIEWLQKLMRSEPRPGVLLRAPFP
Chain of tissue factor/factor VIIa (P08709 61-212 limits assumed): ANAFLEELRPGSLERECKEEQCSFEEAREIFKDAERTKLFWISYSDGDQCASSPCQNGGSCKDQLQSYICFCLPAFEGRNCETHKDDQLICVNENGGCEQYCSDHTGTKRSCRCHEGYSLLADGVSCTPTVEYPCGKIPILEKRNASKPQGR
Chain of tissue factor/factor VIIa (P13726 33-251 partner limits assumed): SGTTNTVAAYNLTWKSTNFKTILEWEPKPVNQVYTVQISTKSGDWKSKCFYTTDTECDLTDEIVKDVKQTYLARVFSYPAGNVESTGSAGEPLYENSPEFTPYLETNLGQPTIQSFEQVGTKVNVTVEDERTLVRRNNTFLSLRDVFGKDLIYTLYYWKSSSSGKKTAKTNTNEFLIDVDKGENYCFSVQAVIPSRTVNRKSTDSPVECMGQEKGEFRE
Chain of human Plasma Kallikrein (P03952 391-638 limits assumed): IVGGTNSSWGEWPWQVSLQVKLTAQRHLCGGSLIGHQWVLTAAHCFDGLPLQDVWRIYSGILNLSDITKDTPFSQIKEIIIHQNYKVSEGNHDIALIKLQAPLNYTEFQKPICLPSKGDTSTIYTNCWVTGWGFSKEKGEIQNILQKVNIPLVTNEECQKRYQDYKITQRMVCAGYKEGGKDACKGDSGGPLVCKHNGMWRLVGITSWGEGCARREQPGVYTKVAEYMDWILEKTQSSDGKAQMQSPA
Chain of human Plasma Kallikrein (P03952 20-390 partner limits assumed): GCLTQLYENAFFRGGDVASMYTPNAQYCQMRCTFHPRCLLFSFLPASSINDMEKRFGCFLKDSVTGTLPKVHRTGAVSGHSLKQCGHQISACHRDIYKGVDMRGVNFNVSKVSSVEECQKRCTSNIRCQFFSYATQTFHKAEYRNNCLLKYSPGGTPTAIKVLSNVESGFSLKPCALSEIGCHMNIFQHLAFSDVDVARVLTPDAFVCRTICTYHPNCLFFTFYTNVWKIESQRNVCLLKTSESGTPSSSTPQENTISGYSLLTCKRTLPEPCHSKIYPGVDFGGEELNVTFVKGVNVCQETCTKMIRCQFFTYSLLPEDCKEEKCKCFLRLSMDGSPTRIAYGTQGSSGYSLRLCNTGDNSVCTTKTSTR
T1 sequence (P00742 235-488 limits assumed): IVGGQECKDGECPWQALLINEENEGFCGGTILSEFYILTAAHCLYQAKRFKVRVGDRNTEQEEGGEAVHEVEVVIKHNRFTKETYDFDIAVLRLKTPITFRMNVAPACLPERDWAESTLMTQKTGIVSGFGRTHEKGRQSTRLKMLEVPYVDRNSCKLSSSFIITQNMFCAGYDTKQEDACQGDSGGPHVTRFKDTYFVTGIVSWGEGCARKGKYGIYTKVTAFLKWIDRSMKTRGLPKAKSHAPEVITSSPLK
T1 sequence (P00742 41-179 limits assumed): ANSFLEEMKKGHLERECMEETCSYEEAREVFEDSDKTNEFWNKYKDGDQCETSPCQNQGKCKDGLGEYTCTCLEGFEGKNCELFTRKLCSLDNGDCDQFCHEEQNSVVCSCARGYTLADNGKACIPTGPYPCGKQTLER
Chain of plasmin (P00747 581-810 limits assumed, species assumed): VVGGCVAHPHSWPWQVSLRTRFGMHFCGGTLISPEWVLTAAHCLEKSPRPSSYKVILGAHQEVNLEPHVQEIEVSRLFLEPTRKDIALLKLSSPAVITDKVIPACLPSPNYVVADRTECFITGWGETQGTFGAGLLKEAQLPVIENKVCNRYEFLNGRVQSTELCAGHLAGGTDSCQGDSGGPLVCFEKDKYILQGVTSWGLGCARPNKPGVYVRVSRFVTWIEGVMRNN
Chain of plasmin (P00747 97-580 partner limits assumed, species assumed): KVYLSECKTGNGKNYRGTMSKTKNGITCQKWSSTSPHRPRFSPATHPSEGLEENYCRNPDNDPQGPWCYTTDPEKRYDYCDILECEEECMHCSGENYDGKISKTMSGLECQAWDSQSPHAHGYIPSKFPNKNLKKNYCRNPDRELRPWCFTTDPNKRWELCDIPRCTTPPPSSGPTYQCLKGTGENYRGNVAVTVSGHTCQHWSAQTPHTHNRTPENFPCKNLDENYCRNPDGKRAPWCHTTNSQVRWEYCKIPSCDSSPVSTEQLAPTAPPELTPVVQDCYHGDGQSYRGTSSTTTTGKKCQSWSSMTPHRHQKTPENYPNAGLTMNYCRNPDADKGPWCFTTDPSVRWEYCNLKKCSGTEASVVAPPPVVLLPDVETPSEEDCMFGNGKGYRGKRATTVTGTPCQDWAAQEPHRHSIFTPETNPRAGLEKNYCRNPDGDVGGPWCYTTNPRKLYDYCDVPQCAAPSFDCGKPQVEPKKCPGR

Molecule `N=C(N)c1cccc(O[C@@H]2C[C@@H](C(=O)N3CCc4ccccc4C3)N(S(=O)(=O)c3ccccc3)C2)c1` [compound 21] has a Ki [1] greater than 39 µM, a Ki (human Factor Xa) of 10.5 µM and a Ki (human Thrombin) of 14.5 µM. For the same molecule, the Ki (trypsin) was 20.2 µM.
`COC(=O)[C@@H]1C[C@@H](Oc2cccc(C(=N)N)c2)CN1` [compound 80] was tested, and the Ki [1] was greater than 39 µM, the Ki (human Factor Xa) was greater than 35.1 µM and the Ki (human Thrombin) was greater than 36.2 µM. For the same molecule, the Ki (trypsin) was 28.3 µM, the Ki (plasmin) was greater than 24.6 µM and the Ki (human Plasma Kallikrein) was 55 µM.
Molecule `C=CCOC(=O)[C@@H]1C[C@@H](Oc2cccc(C(=N)N)c2)CN1` [compound 27] has a Ki [1] of 15.6 µM, a Ki (human Factor Xa) of 14 µM and a Ki (trypsin) of 14.1 µM. The Ki (plasmin) was greater than 24.6 µM.
For `CCCN1C[C@H](Oc2cccc(C(=N)N)c2)C[C@H]1C(=O)Nc1ccc(C(=N)N)cc1` [compound 1], the Ki [1] was 7.8 µM, the Ki (human Factor Xa) was 0.297 µM and the Ki (human Thrombin) was 4.74 µM. For the same molecule, the Ki (trypsin) was 0.866 µM, the Ki (plasmin) was 7.36 µM and the Ki (human Plasma Kallikrein) was 6.56 µM.
`N=C(N)c1ccc(NC(=O)[C@@H]2C[C@@H](Oc3cccc(C(=N)N)c3)CN2Cc2ccccc2[N+](=O)[O-])cc1` [compound 5] showed a Ki [1] greater than 39 µM, a Ki (human Factor Xa) of 2.13 µM and a Ki (human Thrombin) of 14.5 µM. The Ki (trypsin) was 2.14 µM, the Ki (plasmin) was 7 µM and the Ki (human Plasma Kallikrein) was 16 µM.
For `C=CCOC(=O)[C@@H]1C[C@@H](Oc2cccc(C(=N)N)c2)CN1C(=O)c1ccccc1` [compound 36], the Ki (human Factor Xa) was 19.9 µM and 14 µM, the Ki (human Thrombin) was 21.7 µM and the Ki (trypsin) was 4.26 µM. The Ki (human Plasma Kallikrein) was greater than 33.8 µM.
Molecule `C=CCOC(=O)[C@@H]1C[C@@H](Oc2cccc(C(=N)N)c2)CN1Cc1ccccc1` [compound 60] has a Ki (trypsin) of 4.99 µM.
In the case of `CN(Cc1ccccc1)C(=O)[C@@H]1C[C@@H](Oc2cccc(C(=N)N)c2)CN1Cc1ccccc1` [compound 15], the Ki [1] is reported as 156 µM, the Ki (human Factor Xa) is reported as 6.8 µM and the Ki (human Thrombin) is reported as 11 µM. For the same molecule, the Ki (trypsin) was 2.26 µM, the Ki (plasmin) was 15.4 µM and the Ki (human Plasma Kallikrein) was 34.2 µM.
In the case of `CCCCCCN1C[C@H](Oc2cccc(C(=N)N)c2)C[C@H]1C(=O)Nc1ccc(C(=N)N)cc1` [compound 16], the Ki [1] is reported as greater than 39 µM, the Ki (human Factor Xa) is reported as 6.81 µM and the Ki (human Thrombin) is reported as 29 µM. It also gave a Ki (trypsin) of 6.07 µM, a Ki (plasmin) of 12 µM and a Ki (human Plasma Kallikrein) of 17 µM.
In the case of `N=C(N)c1cccc(O[C@@H]2C[C@@H](C(=O)Nc3ccc(Cl)cc3)N(C(=O)c3ccccc3)C2)c1` [compound 17], the Ki [1] is reported as greater than 39 µM, the Ki (human Factor Xa) is reported as 7.88 µM and the Ki (trypsin) is reported as 3.6 µM. For the same molecule, the Ki (human Plasma Kallikrein) was greater than 33.8 µM.
For `CC(=O)N1C[C@H](Oc2cccc(C(=N)N)c2)C[C@H]1C(=O)Nc1ccc(C(=N)N)cc1` [compound 14], the Ki [1] was greater than 39 µM, the Ki (human Factor Xa) was 6.61 µM and the Ki (human Thrombin) was greater than 36.2 µM. It also gave a Ki (trypsin) of 10.1 µM and a Ki (plasmin) greater than 24.5 µM.
With `C=CCOC(=O)[C@@H]1C[C@@H](Oc2cccc(C(=N)N)c2)CN1C(C)=O` [compound 76] the Ki (human Thrombin) was greater than 36.2 µM, the Ki (trypsin) was 30.3 µM and the Ki (plasmin) was greater than 24.5 µM. For the same molecule, the Ki (human Plasma Kallikrein) was greater than 33.8 µM.
`N=C(N)c1cccc(O[C@H]2CN[C@H](C(=O)Nc3ccccc3)C2)c1` [compound 79] was tested, and the Ki [1] was 19 µM, the Ki (human Factor Xa) was greater than 35 µM and the Ki (human Thrombin) was greater than 36 µM. The Ki (trypsin) was 20 µM and the Ki (plasmin) was 24 µM.
For `N=C(N)c1ccc(NC(=O)[C@@H]2C[C@@H](Oc3cccc(C(=N)N)c3)CN2C2CCCCC2)cc1` [compound 6], the Ki [1] was greater than 39 µM, the Ki (human Factor Xa) was 2.41 µM and the Ki (trypsin) was 5.15 µM. The Ki (plasmin) was 15 µM and the Ki (human Plasma Kallikrein) was 3.4 µM.
`N=C(N)c1ccc(NC(=O)[C@@H]2C[C@@H](Oc3cccc(C(=N)N)c3)CN2Cc2ccccc2[N+](=O)[O-])cc1` [compound 7] showed a Ki [1] greater than 39 µM, a Ki (human Factor Xa) of 2.49 µM and a Ki (human Thrombin) of 25 µM. For the same molecule, the Ki (trypsin) was 2.22 µM, the Ki (plasmin) was 7 µM and the Ki (human Plasma Kallikrein) was 20 µM.
For `COc1ccc(CNC(=O)[C@@H]2C[C@@H](Oc3cccc(C(=N)N)c3)CN2C(C)=O)cc1` [compound 23], the Ki [1] was greater than 195 µM and the Ki (human Factor Xa) was 12 µM.
Work on `Cc1ccccc1NC(=O)[C@@H]1C[C@@H](Oc2cccc(C(=N)N)c2)CN1` [compound 44] yielded a Ki [1] of 117 µM and a Ki (human Factor Xa) of 25.9 µM.
For `Cc1ccc(CNC(=O)[C@@H]2C[C@@H](Oc3cccc(C(=N)N)c3)CN2)cc1` [compound 9], the Ki [1] was no less than 390 µM and the Ki (human Factor Xa) was 5.13 µM.
Molecule `COc1ccc(CNC(=O)[C@@H]2C[C@@H](Oc3cccc(C(=N)N)c3)CN2)cc1` [compound 8] has a Ki [1] of no less than 390 µM and a Ki (human Factor Xa) of 3.32 µM.
Work on `N=C(N)c1ccc(NC(=O)[C@@H]2C[C@@H](Oc3cccc(C(=N)N)c3)CN2Cc2ccc([N+](=O)[O-])cc2)cc1` [compound 22] yielded a Ki [1] greater than 39 µM, a Ki (human Factor Xa) of 10.5 µM and a Ki (human Thrombin) greater than 36 µM. For the same molecule, the Ki (trypsin) was 7.76 µM, the Ki (plasmin) was 15 µM and the Ki (human Plasma Kallikrein) was 3.4 µM.
`CC(C)CCNC(=O)[C@@H]1C[C@@H](Oc2cccc(C(=N)N)c2)CN1` [compound 54] gave a Ki [1] of no less than 390 µM and a Ki (human Factor Xa) of 38 µM.
Molecule `N=C(N)c1cccc(O[C@H]2CN[C@H](C(=O)NCCc3ccccc3)C2)c1` [compound 41] has a Ki [1] of 187 µM and a Ki (human Factor Xa) of 24.3 µM.
In the case of `CS(=O)(=O)N1C[C@H](Oc2cccc(C(=N)N)c2)C[C@H]1C(=O)Nc1ccc(Cl)cc1` [compound 52], the Ki [1] is reported as greater than 39 µM, the Ki (human Thrombin) is reported as greater than 36.2 µM and the Ki (trypsin) is reported as 40.5 µM. The Ki (plasmin) was greater than 24.5 µM and the Ki (human Plasma Kallikrein) was 27 µM.
In the case of `N=C(N)c1cccc(O[C@H]2CN[C@H](C(=O)Nc3ccc(-c4ccccc4)cc3)C2)c1` [compound 28], the Ki [1] is reported as no less than 390 µM and the Ki (human Factor Xa) is reported as 14.1 µM.
`C=CCNC(=O)[C@@H]1C[C@@H](Oc2cccc(C(=N)N)c2)CN1` [compound 31] was tested, and the Ki [1] was no less than 390 µM and the Ki (human Factor Xa) was 15.2 µM.
In the case of `COc1cc2c(cc1OC)CN(C(=O)[C@@H]1C[C@@H](Oc3cccc(C(=N)N)c3)CN1)CC2` [compound 11], the Ki (human Factor Xa) is reported as 5.84 µM, the Ki (human Thrombin) is reported as 0.875 µM and the Ki (trypsin) is reported as 0.607 µM. For the same molecule, the Ki (plasmin) was 7.36 µM and the Ki (human Plasma Kallikrein) was 0.979 µM.
`N=C(N)c1cccc(O[C@H]2CN[C@H](C(=O)NCc3ccc4ccccc4c3)C2)c1` [compound 20] gave a Ki [1] of 234 µM and a Ki (human Factor Xa) of 9.07 µM.
For `N=C(N)c1cccc(O[C@H]2CN[C@H](C(=O)Nc3ccc(F)cc3)C2)c1` [compound 65], the Ki [1] was 30.7 µM and the Ki (human Factor Xa) was 70.1 µM.
Molecule `N=C(N)c1cccc(O[C@@H]2C[C@@H](C(=O)N3CCc4ccccc4C3)N(C(=O)c3ccccc3)C2)c1` [compound 32] has a Ki [1] greater than 399 µM, a Ki (human Factor Xa) of 15.3 µM and a Ki (trypsin) of 7.84 µM.
Work on `CC(C)NC(=O)[C@@H]1C[C@@H](Oc2cccc(C(=N)N)c2)CN1` [compound 59] yielded a Ki [1] of no less than 390 µM and a Ki (human Factor Xa) of 59.8 µM.
